From article PMC8164773 (European Journal of Medicinal Chemistry, 2021) come the findings set out here.

Series [1] relates to SARS-CoV-2. The format is cell-based. The note with it: read-out: EC50 +CP.
The nature of series [2]: Solubility studies of bisulfite prodrugs in H2O. The format is physicochemical. The note with it: aqueous media, 25 °C.

In general, EC50 refers to the concentration at which the effect is half-maximal. As for `COc1cccc2[nH]c(C(=O)N[C@@H](CC3CC3)C(=O)N[C@H](C=O)C[C@@H]3CCNC3=O)cc12` [1k], the EC50 in series [1] turned out to be 270 ± 400 nM.

Regarding `CC(C)C[C@H](NC(=O)OCc1ccccc1)C(=O)N[C@@H](C[C@@H]1CCNC1=O)C(O)S(=O)(=O)[O-].[K+]` (some centres unmarked) [3a], the “increase in molar solubility compared to GC376” value in series [2] is reported as “approximately 30%”.
